Each structure is given as a SMILES string. Structures can show the parent of a compound that is named as a salt.

For data set [1], the system named is THP-1 differentiated macrophages. The data set is described as follows: Galectin-3-induced TNFα secretion from macrophages (ELISA). Particulars: Galectin-3 10 μg/ml, various concentrations. Format: cell-based. Here is the method: (§1) Effect of the compound inhibitors on secretion of pro-inflammatory cytokines from macrophages were assessed in THP-1 monocyte differentiated macrophages. THP-1 cells were induced to differentiation into macrophages by incubation with 10 ng/ml PMA for 48 h at 37° C. The culture medium was then replaced with fresh medium without or with 10 μg/ml galectin-3 and various concentrations of the compound inhibitors for 24 h at 37° C. The culture medium was collected and the concentrations of TNFα and IL-1β in the culture medium were determined by TNFα and IL-1β ELISA.

For data set [2], the system named is human umbilical vein endothelial cells (HUVECs). The data set is described as follows: Vascular cell tubule formation (angiogenesis). Format: cell-based. Particulars: Galectin-3 2 μg/ml, compound 10 μM. Here is the method:
Matrigel matrix (50 μl) was added to 96-well plates for 60 min at 37° C. to allow gel formation. HUVEC cells (1×10^5 cells/ml in 1:1 EGM/EBM2 media) was introduced to the plates without or with galectin-3 (2 μg/ml) or different concentrations of compound inhibitors for 24 hr at 37° C. Endothelial cell tube formation was examined with Laser Microscope. The total number of branching points and the sum of the lengths of tubes were measured.

Another data set deals with yeast. The data set can be described thus: Genotoxicity in yeast.
A further data set relates to vascular HUVECs. The data set can be described thus: LDH release cytotoxicity assay, HUVECs. Type of data set: cell-based, human.
In another data set the target is T1, Galectin-8 (Homo sapiens, UniProt O00214).
T1 construct: purchased R&D Systems (Abingdon, UK)
T1 sequence (O00214 1-317): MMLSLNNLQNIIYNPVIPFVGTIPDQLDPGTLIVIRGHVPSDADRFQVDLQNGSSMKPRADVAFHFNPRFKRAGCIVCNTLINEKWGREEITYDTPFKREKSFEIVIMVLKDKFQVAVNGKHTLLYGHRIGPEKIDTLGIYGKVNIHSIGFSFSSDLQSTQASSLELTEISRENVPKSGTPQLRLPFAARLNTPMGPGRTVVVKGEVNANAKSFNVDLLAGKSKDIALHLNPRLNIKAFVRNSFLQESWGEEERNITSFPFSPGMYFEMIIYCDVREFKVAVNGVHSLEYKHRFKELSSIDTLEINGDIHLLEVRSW
The data set is described as follows: Galectin-8 binding to asialofetuin ELISA. Particulars: Gal-8 5 μg/ml, ASF 20 μg/ml. Here is the method: (§2) Effect of the inhibitors on galectin binding to its ligand asialo fetuin (ASF) was measured by galectin ELISA. Nanty-six well plates were coated overnight with 20 μg/ml ASF in coating buffer (15 mM Na2CO3 17 mM NaHCO3 pH 9.6.). The wells were washed twice with PBS and incubated with blocking buffer (1% BSA in PBS) for 1 hr. The supernatants were removed and replaced with 5 μg/ml recombinant human galectin without or with different concentrations of the compound inhibitors or lactose in blocking buffer for 1 hr at room temperature. The wells were washed and incubated with 1 μg/ml anti-galectin antibody for 2 hr. Following addition of HRP-conjugated secondary antibody for 1 hr, FAST OPD development solution was added for 15-20 minutes. The reaction was terminated by addition of 4M sulphuric acid. The plates were read at 492 nm (reference wavelength 595 nm) by a microplate reader.

For a further data set, the target named is T2, Galectin-4 (Homo sapiens, UniProt P56470).
T2 construct: made in house; host or cells: E. coli
T2 sequence (P56470 1-323): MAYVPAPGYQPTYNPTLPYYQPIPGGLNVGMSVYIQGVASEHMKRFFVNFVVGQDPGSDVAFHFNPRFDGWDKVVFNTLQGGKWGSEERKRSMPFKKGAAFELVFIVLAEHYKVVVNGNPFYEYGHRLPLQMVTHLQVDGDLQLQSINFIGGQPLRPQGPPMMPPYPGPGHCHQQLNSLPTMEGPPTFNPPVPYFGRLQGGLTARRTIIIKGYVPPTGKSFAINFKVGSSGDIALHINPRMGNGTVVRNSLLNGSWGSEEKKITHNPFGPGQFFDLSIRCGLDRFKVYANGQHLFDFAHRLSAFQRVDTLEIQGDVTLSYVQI
The data set is described as follows: Galectin-4 binding to asialofetuin ELISA. Particulars: Gal-4 5 μg/ml, ASF 20 μg/ml. Here is the method:
as §2
For orientation: ELISA stands for enzyme-linked immunosorbent assay.

Data set [3] has as its target T3, C-terminal (aa 115-250) Galectin-3 (Homo sapiens, UniProt P17931).
T3 construct: made in house; host or cells: E. coli
The data set can be described thus: Tryptophan Fluorescence Spectroscopy (TFS) binding affinity, C-terminal Galectin-3. As to the method:
The binding affinity of the inhibitors to galectin-3 was determined by Intrinsic Tryptophan Fluorescence Spectroscopy (TFS) exactly as we described recently [Sindrewicz, P., et al., Intrinsic tryptophan fluorescence spectroscopy reliably determines galectin-ligand interactions. Sci Rep, 2019. 9(1): p. 11851]. The Galectin-3 concentration used was 10 μM and the inhibitor titration concentrations were from 0 to 224 μM. DMSO/control buffer (PBS with 2 mM EDTA) titrations were performed and used for background subtraction.

Data set [4] deals with human colon cancer SW620 cells. The data set is described as follows: Galectin-3-mediated SW620 cell adhesion to HUVECs. As to conditions: Galectin-3 2 μg/ml, various concentrations. Format: cell-based. Here is the method: HUVEC cells at 1×10^5 cells/ml in EGM medium were seeded into 24 well plates pre-inserted with 13 mm glass coverslip. The cells were incubated at 37° C. at 5% CO2 for 24 hr for monolayer formation. AGA19+ or SW620 cell suspension (5×10^5 cells/ml in DMEM) was introduced with 5 μl/ml fluorescent cell labelling solution DiL for 30 min at 37° C. The fluorescent labelled cells were washed twice with PBS and resuspended into 1×10^5 cells/ml in DMEM. The cancer cell suspension was then introduced with galectin-3 (2 μg/ml) and various concentrations of the compound inhibitors at 37° C. for 1 hr. The wells were carefully washed twice with PBS to remove the non-adhesion cells before the cells in the wells were fixed with 2% paraformaldehyde for 10 min. The glass coverslip was carefully removed from the plate, placed on a glass slide. After addition of fluorescence mounting medium containing DAPI, fluorescence labelled cells were quantified under a fluorescence microscope.

Data set [5] relates to human colon cancer SW620 cells. The data set is described as follows: LDH release cytotoxicity assay, SW620. Format: cell-based. (In general: Release of lactate dehydrogenase indicates damage to the cell membrane.)
Description: (§3) SW620 cells (5×10^4 cells/ml) were seeded into 96-well plate in DMEM (and incubated at 37° C. 5% CO2 for 24 hr. HUVECs (1.0×10^5 cells/ml) was seeded in EBM medium and incubated for 24-36 hr until they formed a monolayer. Compound inhibitors at different concentrations were then introduced to the cells (10× lysis buffer was included as maximum LDH activity control) for 24 hr. The culture medium was transferred to a new plate and was mixed with equal volume of reaction mixture provided in the kit for 30 min at room temperature before the absorbance was measured at 490 nm (reference 680 nm) by a spectrophotometer.
Data set [6] concerns THP-1 differentiated macrophages. The data set can be described thus: Galectin-3-induced IL-1β secretion from macrophages (ELISA). Format: cell-based. Particulars: Galectin-3 10 μg/ml, various concentrations. As to the method:
as §1

T3 sequence (P17931 115-250): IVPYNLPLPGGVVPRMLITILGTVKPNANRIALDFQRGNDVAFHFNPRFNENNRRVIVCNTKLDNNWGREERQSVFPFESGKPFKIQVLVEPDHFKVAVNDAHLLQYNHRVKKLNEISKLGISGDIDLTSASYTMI
Description for vascular HUVECs: as §3

The term Kd denotes the free concentration of one partner at which half of the binding sites on the other are occupied at equilibrium, for simple one-to-one binding. A low value points to tighter binding. On to `NC1CCN(c2nc3c(cc2F)c(=O)c(C(=O)O)cn3-c2ccc(F)cc2F)C1` (stereo not shown) [Formula X, Tosufloxacin tosylate], for which the “Inhibition of galectin-3-induced TNFα secretion” value in [1] is reported as “dose-dependent inhibition”. For the same compound, the “Inhibition of galectin-3-induced tubule numbers” value in [2] is given as “significant inhibition”. Moreover, in data set [2], the “Inhibition of galectin-3-induced vascular tubule length” value is given as “significant inhibition”. In addition, the Genotoxicity in yeast entry in the data set on yeast was “no detectable genotoxicity”. For the same compound, the “Cytotoxicity to HUVEC cells (LDH release)” value was “no detectable cytotoxicity” in the data set with vascular HUVECs (at 100 μM) and “low cytotoxicity” in the data set on vascular HUVECs (various concentrations). Further, on Galectin-8, the “Effect on Galectin-8 binding to asialofetuin” value is listed as “does not affect binding”. Further, the “Effect on Galectin-4 binding to asialofetuin” value on Galectin-4 is recorded as “does not affect binding”. Besides, the Kd in data set [3] lay in the range of 5 to 7 µM. Further, the “Inhibition of SW620 cell adhesion to HUVECs” value in data set [4] is given as “dose-dependent inhibition”. Besides, the results for the “Cytotoxicity to SW620 cells (LDH release)” value in data set [5] (at 100 μM) and in data set [5] (various concentrations) were “no detectable cytotoxicity” and “low cytotoxicity”, respectively. The “Inhibition of galectin-3-induced IL-1β secretion” value in data set [6] is on record as “dose-dependent inhibition”.

Values taken from patent US20260232644A1, “Compositions Comprising an Inhibitor of Galectin-3” (University of Liverpool, priority 2023, published 2026).
